From US9266876B2 (Actelion Pharmaceuticals Ltd., priority 2012, dated 2016)

Experiments:
human CXCR3A = human CXCR3A (Homo sapiens (Human), UniProt P49682); test: FLIPR assay; type: cell-based; conditions: CHO-K1 cells expressing the human CXCR3A coupled to Galpha(16); CXCL10 agonist 20 nM; Fluo-4-AM fluorescence; mean values if determined several times
How it was run: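 CHO-K1 cells expressing CXCR3A coupled to Gα16 were loaded with Fluo-4-AM for 1 h in Hepes-buffered HBSS, pH 7.4, with 5 mM probenecid. Compound dilutions were added on the FLIPR, followed by CXCL10 (added as a 20 nM solution). Baseline-subtracted peak fluorescence was fitted to a single-site curve for IC50.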

CXCR3 = CXCR3 (Homo sapiens (Human), UniProt P49682); test: Receptor internalization assay; type: cell-based; conditions: human whole blood; final CXCL10 concentration 9 nM; 30 min 37° C.; CXCR3 cell surface expression on CD3 positive cells, flow cytometer; read-out: Internalization IC50
How it was run: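 In human whole blood, compounds were incubated with CXCL10 (9 nM final) for 30 min at 37 °C to drive receptor internalization, then stained with anti-CXCR3/CD3 antibodies and lysed of red cells. Flow cytometry measured mean surface CXCR3 fluorescence on CD3+ cells, and IC50 came from single-site dose-response fits.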

Sequence of CXCR3 (P49682 whole entry): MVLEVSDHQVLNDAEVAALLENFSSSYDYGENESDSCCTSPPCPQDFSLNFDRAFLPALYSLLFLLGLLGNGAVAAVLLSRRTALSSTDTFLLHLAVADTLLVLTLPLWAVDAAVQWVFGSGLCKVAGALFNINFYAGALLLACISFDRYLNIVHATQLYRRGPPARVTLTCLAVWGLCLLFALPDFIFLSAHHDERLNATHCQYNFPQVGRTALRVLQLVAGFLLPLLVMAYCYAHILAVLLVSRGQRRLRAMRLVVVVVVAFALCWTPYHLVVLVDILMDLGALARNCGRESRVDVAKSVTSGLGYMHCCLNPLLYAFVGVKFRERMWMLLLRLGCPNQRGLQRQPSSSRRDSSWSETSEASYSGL
Sequence of human CXCR3A (P49682 whole entry): as above

SMILES	IC50 (human CXCR3A) [nM]	IC50 (CXCR3) [nM]
C[C@@H]1CN(c2scnc2-c2nc3ccccc3[nH]2)CCN1C(=O)Cn1c(=O)oc2cccnc21 [Example 155, 3-(2-{(R)-4-[4-(1H-Benzoimidazol-2-yl)-thiazol-5-yl]-2-methyl-piperazin-1-yl}-2-oxo-ethyl)-3H-oxazolo[4,5-b]pyridin-2-one]	6	1100
COc1cc2nc(-c3ncsc3N3CCN(C(=O)Cn4cnc5cccnc54)[C@H](C)C3)[nH]c2cc1OC [Example 158, 1-{(R)-4-[4-(5,6-Dimethoxy-1H-benzoimidazol-2-yl)-thiazol-5-yl]-2-methyl-piperazin-1-yl}-2-imidazo[4,5-b]pyridin-3-yl-ethanone]	5	3430
C[C@@H]1CN(c2scnc2-c2nc3ccc(CO)cc3[nH]2)CCN1C(=O)Cn1cnc2cccnc21 [Example 159, 1-{(R)-4-[4-(6-Hydroxymethyl-1H-benzoimidazol-2-yl)-thiazol-5-yl]-2-methyl-piperazin-1-yl}-2-imidazo[4,5-b]pyridin-3-yl-ethanone]	1	1540
C[C@@H]1CN(c2sc(C(F)(F)F)nc2-c2nc3ccc(CO)cc3[nH]2)CCN1C(=O)Cn1cnc2cccnc21 [Example 160, 1-{(R)-4-[4-(6-Hydroxymethyl-1H-benzoimidazol-2-yl)-2-trifluoromethyl-thiazol-5-yl]-2-methyl-piperazin-1-yl}-2-imidazo[4,5-b]pyridin-3-yl-ethanone]	2	92
COc1cc2nc(-c3nc(C(F)(F)F)sc3N3CCN(C(=O)Cn4cnc5cccnc54)[C@H](C)C3)[nH]c2cc1OC [Example 161, 1-{(R)-4-[4-(5,6-Dimethoxy-1H-benzoimidazol-2-yl)-2-trifluoromethyl-thiazol-5-yl]-2-methyl-piperazin-1-yl}-2-imidazo[4,5-b]pyridin-3-yl-ethanone]	2	146
C[C@@H]1CN(c2scnc2-c2nc3ccc(C4CC4)cc3[nH]2)CCN1C(=O)Cn1cnc2cccnc21 [Example 162, 1-{(R)-4-[4-(6-Cyclopropyl-1H-benzoimidazol-2-yl)-thiazol-5-yl]-2-methyl-piperazin-1-yl}-2-imidazo[4,5-b]pyridin-3-yl-ethanone]	1	181
COCCOc1ccc2[nH]c(-c3nc(C(F)(F)F)sc3N3CCN(C(=O)Cn4cnc5cccnc54)[C@H](C)C3)nc2c1 [Example 163, 2-Imidazo[4,5-b]pyridin-3-yl-1-((R)-4-{4-[5-(2-methoxy-ethoxy)-1H-benzoimidazol-2-yl]-2-trifluoromethyl-thiazol-5-yl}-2-methyl-piperazin-1-yl)-ethanone]	5	47
C[C@@H]1CN(c2sc(C(F)(F)F)nc2-c2nc3cc(OCCO)ccc3[nH]2)CCN1C(=O)Cn1cnc2cccnc21 [Example 164, 1-((R)-4-{4-[5-(2-Hydroxy-ethoxy)-1H-benzoimidazol-2-yl]-2-trifluoromethyl-thiazol-5-yl}-2-methyl-piperazin-1-yl)-2-imidazo[4,5-b]pyridin-3-yl-ethanone]	1	93
CC(=O)c1ccc2[nH]c(-c3nc(C(F)(F)F)sc3N3CCN(C(=O)Cn4cnc5cccnc54)[C@H](C)C3)nc2c1 [Example 165, 1-{(R)-4-[4-(5-Acetyl-1H-benzoimidazol-2-yl)-2-trifluoromethyl-thiazol-5-yl]-2-methyl-piperazin-1-yl}-2-imidazo[4,5-b]pyridin-3-yl-ethanone]	1	98
CC(O)c1ccc2[nH]c(-c3nc(C(F)(F)F)sc3N3CCN(C(=O)Cn4cnc5cccnc54)[C@H](C)C3)nc2c1 (stereo partly drawn) [Example 166, 1-((R)-4-{4-[5-(1-Hydroxy-ethyl)-1H-benzoimidazol-2-yl]-2-trifluoromethyl-thiazol-5-yl}-2-methyl-piperazin-1-yl)-2-imidazo[4,5-b]pyridin-3-yl-ethanone]	1	111
COC(=O)c1ccc2[nH]c(-c3nc(C(F)(F)F)sc3N3CCN(C(=O)Cn4cnc5cccnc54)[C@H](C)C3)nc2c1 [Example 167, 2-{5-[(R)-4-(2-Imidazo[4,5-b]pyridin-3-yl-acetyl)-3-methyl-piperazin-1-yl]-2-trifluoromethyl-thiazol-4-yl}-1H-benzoimidazole-5-carboxylic acid methyl ester]	1	140
C[C@@H]1CN(c2sc(C(F)(F)F)nc2-c2nc3cc(C4(O)CC4)ccc3[nH]2)CCN1C(=O)Cn1cnc2cccnc21 [Example 168, 1-((R)-4-{4-[5-(1-Hydroxy-cyclopropyl)-1H-benzoimidazol-2-yl]-2-trifluoromethyl-thiazol-5-yl}-2-methyl-piperazin-1-yl)-2-imidazo[4,5-b]pyridin-3-yl-ethanone]	3	435
C[C@@H]1CN(c2sc(C(F)(F)F)nc2-c2nc3cccnc3[nH]2)CCN1C(=O)Cn1cnc2cccnc21 [Example 169, 2-Imidazo[4,5-b]pyridin-3-yl-1-{(R)-4-[4-(3H-imidazo[4,5-b]pyridin-2-yl)-2-trifluoromethyl-thiazol-5-yl]-2-methyl-piperazin-1-yl}-ethanone]	0.3	685
C[C@@H]1CN(c2sc(C(F)(F)F)nc2-c2nc3ccncc3[nH]2)CCN1C(=O)Cn1cnc2cccnc21 [Example 170, 2-Imidazo[4,5-b]pyridin-3-yl-1-{(R)-4-[4-(3H-imidazo[4,5-c]pyridin-2-yl)-2-trifluoromethyl-thiazol-5-yl]-2-methyl-piperazin-1-yl}-ethanone]	6	1060
C[C@@H]1CN(c2sc(C(F)(F)F)nc2-c2nc3cncnc3[nH]2)CCN1C(=O)Cn1cnc2cccnc21 [Example 171, 2-Imidazo[4,5-b]pyridin-3-yl-1-{(R)-2-methyl-4-[4-(9H-purin-8-yl)-2-trifluoromethyl-thiazol-5-yl]-piperazin-1-yl}-ethanone]	1	1080
C[C@@H]1CN(c2sc(C(F)(F)F)nc2-c2nc3ccccc3[nH]2)CCN1C(=O)Cn1cnc2ccccc21 [Example 172, 2-Benzoimidazol-1-yl-1-{(R)-4-[4-(1H-benzoimidazol-2-yl)-2-trifluoromethyl-thiazol-5-yl]-2-methyl-piperazin-1-yl}-ethanone]	1	73
C[C@@H]1CN(c2sc(C(F)(F)F)nc2-c2nc3ccccc3[nH]2)CCN1C(=O)Cn1cccn1 [Example 173, 1-{(R)-4-[4-(1H-Benzoimidazol-2-yl)-2-trifluoromethyl-thiazol-5-yl]-2-methyl-piperazin-1-yl}-2-pyrazol-1-yl-ethanone]	0.5	395
Cc1ccn(CC(=O)N2CCN(c3sc(C(F)(F)F)nc3-c3nc4ccccc4[nH]3)C[C@H]2C)n1 [Example 174, 1-{(R)-4-[4-(1H-Benzoimidazol-2-yl)-2-trifluoromethyl-thiazol-5-yl]-2-methyl-piperazin-1-yl}-2-(3-methyl-pyrazol-1-yl)-ethanone]	0.2	53
C[C@@H]1CN(c2sc(C(F)(F)F)nc2-c2nc3ccccc3[nH]2)CCN1C(=O)Cn1cc(Cl)cn1 [Example 175, 1-{(R)-4-[4-(1H-Benzoimidazol-2-yl)-2-trifluoromethyl-thiazol-5-yl]-2-methyl-piperazin-1-yl}-2-(4-chloro-pyrazol-1-yl)-ethanone]	0.1	227
Cc1ccnn1CC(=O)N1CCN(c2sc(C(F)(F)F)nc2-c2nc3ccccc3[nH]2)C[C@H]1C [Example 176, 1-{(R)-4-[4-(1H-Benzoimidazol-2-yl)-2-trifluoromethyl-thiazol-5-yl]-2-methyl-piperazin-1-yl}-2-(5-methyl-pyrazol-1-yl)-ethanone]	0.1	111
Cc1nc(C)n(CC(=O)N2CCN(c3sc(C(F)(F)F)nc3-c3nc4ccccc4[nH]3)C[C@H]2C)n1 [Example 178, 1-{(R)-4-[4-(1H-Benzoimidazol-2-yl)-2-trifluoromethyl-thiazol-5-yl]-2-methyl-piperazin-1-yl}-2-(3,5-dimethyl-[1,2,4]triazol-1-yl)-ethanone]	2	224
C[C@@H]1CN(c2sc(C(F)(F)F)nc2-c2nc3ccc(N4CCN(C)CC4)cc3[nH]2)CCN1C(=O)Cn1cccn1 [Example 179, 1-((R)-2-Methyl-4-{4-[6-(4-methyl-piperazin-1-yl)-1H-benzoimidazol-2-yl]-2-trifluoromethyl-thiazol-5-yl}-piperazin-1-yl)-2-pyrazol-1-yl-ethanone]	2	138
C[C@@H]1CN(c2sc(C(F)(F)F)nc2-c2nc3ccc(N(C)C)cc3[nH]2)CCN1C(=O)Cn1cccn1 [Example 180, 1-{(R)-4-[4-(6-Dimethylamino-1H-benzoimidazol-2-yl)-2-trifluoromethyl-thiazol-5-yl]-2-methyl-piperazin-1-yl}-2-pyrazol-1-yl-ethanone]	2	703
C[C@@H]1CN(c2sc(C(F)(F)F)nc2-c2nc3ccc(CN4CCCCC4)cc3[nH]2)CCN1C(=O)Cn1cccn1 [Example 181, 1-{(R)-2-Methyl-4-[4-(6-piperidin-1-ylmethyl-1H-benzoimidazol-2-yl)-2-trifluoromethyl-thiazol-5-yl]-piperazin-1-yl}-2-pyrazol-1-yl-ethanone]	58	3090
